PMC9545474, “Anticancer Water‐Soluble Organoruthenium Complexes: Synthesis and Preclinical Evaluation” (Chembiochem, 2022)

Tests used:
[1] = Reactivity with NAC by NMR; format: physicochemical; conditions: NMR studies over 24 hours
[2] = tested on: A2780 ovarian cancer cells; test: 24-hour MTT chemosensitivity assay with 72-hour recovery, A2780; format: cell-based, human; conditions: for IC50: 24 h exposure, 72 h recovery, MTT, read-out: IC50 values ±SD, A2780; for Selectivity index (SI), A2780: mean IC50 PNT2 / mean IC50 A2780
Experimental: Chemosensitivity studies were undertaken using a 24‐hour MTT assay, with a 72‐hour recovery period. The IC50 values were determined against ovarian A2780 (cisplatin‐sensitive) and A2780cisR (cisplatin‐resistant) cancer cell lines, non‐small‐cell lung H460 cancer cell line, and normal prostate PNT2 cell line, exposed to each of compounds 4–8, cisplatin or the phosphine ligands (Table 1 and S4, Figures S29–S31). […] This is unusual but can be related to solubility issues not visible for the naked eye and thus hindering its activity in cells. […] When tested on their own, the phosphine ligands are not active below 100 μM for all four cell lines. […] This therefore prevents comparison with the well‐known RAPTA family, and more especially with RAPTA−C which bears a PTA ligand and a p‐cym ligand, making this complex relatively similar in terms of geometry with complex 4.[21] […] This confirms the interest of the sulfur coordinating atom in terms of cytotoxicity for organoruthenium complexes.[23]
Chemosensitivity assay: In vitro chemosensitivity tests were performed against A2780, A2780cisR, PNT2 and H460 cells. Cells were routinely maintained as monolayer cultures in RPMI 1640 medium supplemented with 10 % foetal calf serum, penicillin (100 I.U./mL) and streptomycin (100 μg/mL), sodium pyruvate (1 mM) and L‐glutamine (2 mM). For chemosensitivity studies, cells were seeded in 96‐well plates at a concentration of 7.5×10^3 cells per well and the plates were incubated for 24 h at 37 °C and a 5 % CO2 humidified atmosphere prior to drug exposure.
Complexes were dissolved in either DMSO (complexes 4, 5, and 8) or PBS (complexes 6 and 7) to provide stock solutions which were further diluted with media to provide a range of final concentrations. Drug‐media solutions were added to cells (the final concentration of DMSO was less than 1 % (v/v) in all cases) and incubated for 24 h at 37 °C and a 5 % CO2 humidified atmosphere. The drug‐media solution was removed from the wells and the cells were washed with PBS (100 μL, twice) and 200 μL of complete fresh media were added to each well. The plates were further incubated for 72 h at 37 °C and a 5 % CO2 humidified atmosphere to allow for a period of recovery. 3‐(4,5‐dimethylthiazol‐2‐yl)‐2,5‐diphenyltetrazolium bromide (MTT) (40 μL, 2.5 mg/mL) was added to each well and plates were incubated for 2 h. All solutions were then removed and 100 μL of DMSO was added to each well in order to dissolve the purple formazan crystals. A Thermo Scientific Multiskan EX microplate photometer was used to measure the absorbance in each well at 570 nm. Cell survival was determined as the absorbance of treated cells divided by the absorbance of controls and expressed as a percentage. The IC50 values were determined from plots of % survival against drug concentration. Each experiment was repeated in triplicates of triplicates and a mean value was obtained and stated as IC50 (μM) ± SD. Untreated cells were used as a negative control, and cells treated with cisplatin were used as a positive control.

[3] = mice
Experimental: Compounds: All compounds were provided in powdered form and stored in the −20 °C freezer. They were formulated just before use. […] The drugs were then administered within 10 minutes of initial dilution.
Animals: Female Balb/c immunodeficient nude mice aged 6–12 weeks were used (Envigo, Blackthorn, UK). Mice were kept in cages housed in isolation cabinets in an air‐conditioned room with regular alternating cycles of light and darkness. They received Teklad 2018 diet (Envigo, Blackthorn, UK) and water ad libitum. All animal procedures were carried out under a project licence issued by the UK Home Office and UK National Cancer Research Institute Guidelines for the Welfare of Animals were followed throughout.
(1 picture or pasted object on this page, not shown here)

Row | Molecule | Reaction with NAC [1] | IC50 [2] | Selectivity index (SI), A2780 [2] | maximum tolerated dose (MTD) ([3]; i.p. daily, monitored for a further two weeks) | Toxicity in MTD run ([3]; i.p., 15mg/kg in 20 % DMSO/arachis oil, full run)
1 | (η^6‐p‐cymene)(TPPTS)Ru(Mnt) [Complex 6] | do not react together | 600 ± 70 nM | 2.67 | – | –
2 | Cc1ccc(C(C)C)cc1.N#CC1=C(C#N)[S][Ru-]([P+](c2ccccc2)(c2ccccc2)c2ccccc2)[S]1 [Complex 8, (η^6‐p‐cymene)(PPh3)Ru(Mnt)] | – | 960 ± 40 nM | 2.50 | 15 mg/kg | no evidence of toxicity was seen
